Reference: US9320276B2, “N-hetarylmethyl pyrazolylcarboxamides” (BAYER INTELLECTUAL PROPERTY GMBH, priority 2010, dated 2016)

System: Sphaerotheca fuliginea
Assay: in vivo preventive test on Sphaerotheca fuliginea (cucumber)
Conditions: 500 ppm of active ingredient, evaluated 7 days after inoculation
Procedure: Solvent: 49 parts by weight of N,N-dimethylformamide Emulsifier: 1 part by weight of Alkylarylpolyglycolether To produce a suitable preparation of active compound, 1 part by weight of active compound is mixed with the stated amounts of solvent and emulsifier, and the concentrate is diluted with water to the desired concentration. To test for preventive activity, young plants are sprayed with the preparation of active compound at the stated rate of application. One day after this treatment, the plants are inoculated with an aqueous spore suspension of Sphaerotheca fuliginea. Then the plants are placed in a greenhouse at approximately 23° C. and a relative atmospheric humidity of approximately 70%. The test is evaluated 7 days after the inoculation. 0% means an efficacy which corresponds to that of the untreated control, while an efficacy of 100% means that no disease is observed.

Row | SMILES | Efficacy [%]
1 | CC(c1cc2ccccc2s1)N(C(=O)c1c(C(F)F)nn(C)c1F)C1CC1 (racemic) [Example 80] | 99
2 | CC(c1cccc2ccsc12)N(C(=O)c1c(C(F)F)nn(C)c1F)C1CC1 (centres unmarked) [Example 91] | 88
3 | CC(c1cc2ccccc2o1)N(C(=O)c1c(C(F)F)nn(C)c1F)C1CC1 (racemic) [Example 70] | 98
4 | CC(c1cc(Cl)sc1Cl)N(C(=O)c1c(C(F)F)nn(C)c1F)C1CC1 (centres unmarked) [Example 128] | 98
5 | Cn1nc(C(F)F)c(C(=S)N(Cc2cccc3ccsc23)C2CC2)c1F [Example 95] | 88
6 | CC(C)c1nn(-c2ccccc2)c(Cl)c1CN(C(=O)c1c(C(F)F)nn(C)c1F)C1CC1 [Example 169] | 100
7 | Cc1sc(-c2ccccc2)cc1C(C)N(C(=O)c1c(C(F)F)nn(C)c1F)C1CC1 (centres unmarked) [Example 147] | 88

System: Alternaria solani
Assay: in vivo preventive test on Alternaria solani (tomato)
Conditions: 500 ppm of active ingredient, evaluated 7 days after inoculation
Summary of the method: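 Young tomato plants were sprayed preventively with compound in DMF/alkylarylpolyglycolether diluted in water, then inoculated one day later with A. solani spores. Incubation was 1 day at about 22 °C and 100% RH, then about 20 °C and 96% RH. Efficacy was scored 7 days after inoculation (0% = untreated control, 100% = no disease).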

Row | SMILES | Efficacy [%]
8 | CC(c1cccc2ccsc12)N(C(=O)c1c(C(F)F)nn(C)c1F)C1CC1 (centres unmarked) [Example 91] | 95
9 | CC(c1cc2ccccc2o1)N(C(=O)c1c(C(F)F)nn(C)c1F)C1CC1 (racemic) [Example 70] | 100
10 | CC(c1cc(Cl)sc1Cl)N(C(=O)c1c(C(F)F)nn(C)c1F)C1CC1 (centres unmarked) [Example 128] | 100
11 | Cn1nc(C(F)F)c(C(=S)N(Cc2cccc3ccsc23)C2CC2)c1F [Example 95] | 95
12 | CC(C)c1nn(-c2ccccc2)c(Cl)c1CN(C(=O)c1c(C(F)F)nn(C)c1F)C1CC1 [Example 169] | 100
13 | Cc1sc(-c2ccccc2)cc1C(C)N(C(=O)c1c(C(F)F)nn(C)c1F)C1CC1 (centres unmarked) [Example 147] | 95

System: Pyrenophora teres
Assay: in vivo preventive test on Pyrenophora teres (barley)
Conditions: 500 ppm of active ingredient, evaluated 7-9 days after inoculation
Summary of the method: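 Young barley plants sprayed with compound in DMF/alkylaryl polyglycol ether emulsion; inoculated with P. teres spores one day later. 48 h at 22 °C, 100% humidity, then greenhouse ~20 °C, ~80% humidity; efficacy scored 7-9 days post-inoculation, 0% = untreated, 100% = no disease.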

Row | SMILES | Efficacy [%]
14 | CC(c1cc2ccccc2s1)N(C(=O)c1c(C(F)F)nn(C)c1F)C1CC1 (racemic) [Example 80] | 100
15 | CC(c1cccc2ccsc12)N(C(=O)c1c(C(F)F)nn(C)c1F)C1CC1 (centres unmarked) [Example 91] | 100
16 | CC(c1cc2ccccc2o1)N(C(=O)c1c(C(F)F)nn(C)c1F)C1CC1 (racemic) [Example 70] | 100
17 | CC(c1cc(Cl)sc1Cl)N(C(=O)c1c(C(F)F)nn(C)c1F)C1CC1 (centres unmarked) [Example 128] | 100
18 | Cn1nc(C(F)F)c(C(=S)N(Cc2cccc3ccsc23)C2CC2)c1F [Example 95] | 100
19 | CC(C)c1nn(-c2ccccc2)c(Cl)c1CN(C(=O)c1c(C(F)F)nn(C)c1F)C1CC1 [Example 169] | 100
20 | Cc1sc(-c2ccccc2)cc1C(C)N(C(=O)c1c(C(F)F)nn(C)c1F)C1CC1 (centres unmarked) [Example 147] | 100

System: Septoria tritici
Assay: in vivo preventive test on Septoria tritici (wheat)
Conditions: 500 ppm of active ingredient, evaluated 21 days after inoculation
Procedure: Solvent: 49 parts by weight of N,N-dimethylacetamide Emulsifier: 1 part by weight of alkylaryl polyglycol ether To produce a suitable preparation of active compound, 1 part by weight of active compound or active compound combination is mixed with the stated amounts of solvent and emulsifier, and the concentrate is diluted with water to the desired concentration. To test for preventive activity, young plants are sprayed with the preparation of active compound or active compound combination at the stated rate of application. After the spray coating has been dried, the plants are sprayed with a spore suspension of Septoria tritici. The plants remain for 48 hours in an incubation cabinet at approximately 20° C. and a relative atmospheric humidity of approximately 100% and afterwards for 60 hours at approximately 15° C. in a translucent incubation cabinet at a relative atmospheric humidity of approximately 100%. The plants are placed in the greenhouse at a temperature of approximately 15° C. and a relative atmospheric humidity of approximately 80%. The test is evaluated 21 days after the inoculation. 0% means an efficacy which corresponds to that of the untreated control, while an efficacy of 100% means that no disease is observed.

Row | SMILES | Efficacy [%]
21 | CC(c1cc2ccccc2s1)N(C(=O)c1c(C(F)F)nn(C)c1F)C1CC1 (racemic) [Example 80] | 100
22 | CC(c1cccc2ccsc12)N(C(=O)c1c(C(F)F)nn(C)c1F)C1CC1 (centres unmarked) [Example 91] | 100
23 | CC(c1cc2ccccc2o1)N(C(=O)c1c(C(F)F)nn(C)c1F)C1CC1 (racemic) [Example 70] | 100
24 | CC(c1cc(Cl)sc1Cl)N(C(=O)c1c(C(F)F)nn(C)c1F)C1CC1 (centres unmarked) [Example 128] | 90
25 | Cn1nc(C(F)F)c(C(=S)N(Cc2cccc3ccsc23)C2CC2)c1F [Example 95] | 80
26 | CC(C)c1nn(-c2ccccc2)c(Cl)c1CN(C(=O)c1c(C(F)F)nn(C)c1F)C1CC1 [Example 169] | 100
27 | Cc1sc(-c2ccccc2)cc1C(C)N(C(=O)c1c(C(F)F)nn(C)c1F)C1CC1 (centres unmarked) [Example 147] | 80

System: Blumeria graminis fsp. hordei
Assay: in vivo preventive test on Blumeria graminis (barley)
Conditions: 500 ppm of active ingredient, evaluated 7 days after inoculation
Procedure: Solvent: 49 parts by weight of N,N-dimethylacetamide Emulsifier: 1 part by weight of alkylaryl polyglycol ether To produce a suitable preparation of active compound, 1 part by weight of active compound or active compound combination is mixed with the stated amounts of solvent and emulsifier, and the concentrate is diluted with water to the desired concentration. To test for preventive activity, young plants are sprayed with the preparation of active compound or active compound combination at the stated rate of application. After the spray coating has been dried, the plants are dusted with spores of Blumeria graminis fsp. hordei. The plants are placed in the greenhouse at a temperature of approximately 18° C. and a relative atmospheric humidity of approximately 80% to promote the development of mildew pustules. The test is evaluated 7 days after the inoculation. 0% means an efficacy which corresponds to that of the untreated control, while an efficacy of 100% means that no disease is observed.

Row | SMILES | Efficacy [%]
28 | CC(c1cc2ccccc2s1)N(C(=O)c1c(C(F)F)nn(C)c1F)C1CC1 (racemic) [Example 80] | 86
29 | CC(c1cccc2ccsc12)N(C(=O)c1c(C(F)F)nn(C)c1F)C1CC1 (centres unmarked) [Example 91] | 94
30 | CC(c1cc2ccccc2o1)N(C(=O)c1c(C(F)F)nn(C)c1F)C1CC1 (racemic) [Example 70] | 80
31 | CC(c1cc(Cl)sc1Cl)N(C(=O)c1c(C(F)F)nn(C)c1F)C1CC1 (centres unmarked) [Example 128] | 100
32 | Cn1nc(C(F)F)c(C(=S)N(Cc2cccc3ccsc23)C2CC2)c1F [Example 95] | 100
33 | CC(C)c1nn(-c2ccccc2)c(Cl)c1CN(C(=O)c1c(C(F)F)nn(C)c1F)C1CC1 [Example 169] | 100
34 | Cc1sc(-c2ccccc2)cc1C(C)N(C(=O)c1c(C(F)F)nn(C)c1F)C1CC1 (centres unmarked) [Example 147] | 70

System: Fusarium nivale (var. majus)
Assay: in vivo curative test on Fusarium nivale (wheat)
Conditions: 500 ppm of active ingredient, evaluated 5 days after inoculation
Procedure: Solvent: 49 parts by weight of N,N-dimethylacetamide Emulsifier: 1 part by weight of alkylaryl polyglycol ether To produce a suitable preparation of active compound, 1 part by weight of active compound or active compound combination is mixed with the stated amounts of solvent and emulsifier, and the concentrate is diluted with water to the desired concentration. To test for curative activity, young plants are slightly injured by using a sandblast and afterwards they are sprayed with a conidia suspension of Fusarium nivale (var. majus) and placed for 24 hours in a greenhouse under a translucent incubation cabinet at a temperature of approximately 10° C. and a relative atmospheric humidity of approximately 100% and are subsequently sprayed with the preparation of active compound at the stated rate of application. After the spray coating has been dried, the plants remain in the greenhouse under translucent incubation cloches at a temperature of approximately 10° C. and a relative atmospheric humidity of approximately 100%. The test is evaluated 5 days after the inoculation. 0% means an efficacy which corresponds to that of the untreated control, while an efficacy of 100% means that no disease is observed.

Row | SMILES | Efficacy [%]
35 | CC(c1cc2ccccc2s1)N(C(=O)c1c(C(F)F)nn(C)c1F)C1CC1 (racemic) [Example 80] | 93
36 | CC(c1cccc2ccsc12)N(C(=O)c1c(C(F)F)nn(C)c1F)C1CC1 (centres unmarked) [Example 91] | 71
37 | CC(c1cc2ccccc2o1)N(C(=O)c1c(C(F)F)nn(C)c1F)C1CC1 (racemic) [Example 70] | 100
38 | CC(c1cc(Cl)sc1Cl)N(C(=O)c1c(C(F)F)nn(C)c1F)C1CC1 (centres unmarked) [Example 128] | 100
39 | Cn1nc(C(F)F)c(C(=S)N(Cc2cccc3ccsc23)C2CC2)c1F [Example 95] | 86
40 | CC(C)c1nn(-c2ccccc2)c(Cl)c1CN(C(=O)c1c(C(F)F)nn(C)c1F)C1CC1 [Example 169] | 83
41 | Cc1sc(-c2ccccc2)cc1C(C)N(C(=O)c1c(C(F)F)nn(C)c1F)C1CC1 (centres unmarked) [Example 147] | 92

System: Leptosphaeria nodorum
Assay: in vivo preventive test on Leptosphaeria nodorum (wheat)
Conditions: 500 ppm of active ingredient, evaluated 7-9 days after inoculation
Procedure: Solvent: 49 parts by weight of N,N-dimethylacetamide Emulsifier: 1 part by weight of alkylaryl polyglycol ether To produce a suitable preparation of active compound, 1 part by weight of active compound is mixed with the stated amounts of solvent and emulsifier, and the concentrate is diluted with water to the desired concentration. To test for preventive activity, young plants are sprayed with a preparation of active compound at the stated rate of application. One day after this treatment, the plants are inoculated with an aqueous spore suspension of Leptosphaeria nodorum. The plants remain for 48 hours in an incubation cabinet at 22° C. and a relative atmospheric humidity of 100%. Then the plants are placed in a greenhouse at a temperature of approximately 22° C. and a relative atmospheric humidity of approximately 90%. The test is evaluated 7-9 days after the inoculation. 0% means an efficacy which corresponds to that of the untreated control, while an efficacy of 100% means that no disease is observed.

Row | SMILES | Efficacy [%]
42 | CC(c1cc2ccccc2s1)N(C(=O)c1c(C(F)F)nn(C)c1F)C1CC1 (racemic) [Example 80] | 100
43 | CC(c1cccc2ccsc12)N(C(=O)c1c(C(F)F)nn(C)c1F)C1CC1 (centres unmarked) [Example 91] | 100
44 | CC(c1cc2ccccc2o1)N(C(=O)c1c(C(F)F)nn(C)c1F)C1CC1 (racemic) [Example 70] | 83
45 | CC(c1cc(Cl)sc1Cl)N(C(=O)c1c(C(F)F)nn(C)c1F)C1CC1 (centres unmarked) [Example 128] | 100
46 | CC(C)c1nn(-c2ccccc2)c(Cl)c1CN(C(=O)c1c(C(F)F)nn(C)c1F)C1CC1 [Example 169] | 100
47 | Cc1sc(-c2ccccc2)cc1C(C)N(C(=O)c1c(C(F)F)nn(C)c1F)C1CC1 (centres unmarked) [Example 147] | 93
